Laboratory results published in PubChem BioAssay (NCI).
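Following 48 hours of exposure in 96-well plates, responses at five concentrations were used to interpolate endpoints linearly. GI50 = concentration required for 50% inhibition of growth. Definition used: TGI = concentration required for complete inhibition of growth.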

Key:
Experiment in all cases: NCI anticancer screen, dose series, 48 h
[1] = test system: 786-0 renal
[2] = test system: A498 renal
[3] = test system: A549 NSCLC
[4] = test system: ACHN renal
[5] = test system: CAKI-1 renal
[6] = test system: CCRF-CEM leukemia
[7] = test system: COLO 205 colon
[8] = test system: DLD-1 colon
[9] = test system: DMS 114 small cell lung
[10] = test system: DMS 273 small cell lung
[11] = test system: EKVX NSCLC
[12] = test system: HCC-2998 colon
[13] = test system: HCT-15 colon
[14] = test system: HOP-62 NSCLC
[15] = test system: HT29 colon
[16] = test system: IGROV1 ovarian
[17] = test system: K-562 leukemia
[18] = test system: KM12 colon
[19] = test system: KM20L2 colon
[20] = test system: LOX IMVI melanoma
[21] = test system: LXFL 529 NSCLC
[22] = test system: M14 melanoma
[23] = test system: M19-MEL melanoma
[24] = test system: MALME-3M melanoma
[25] = test system: MOLT-4 leukemia
[26] = test system: NCI-H23 lung
[27] = test system: NCI-H460 lung
[28] = test system: OVCAR-3 ovarian
[29] = test system: OVCAR-4 ovarian
[30] = test system: OVCAR-5 ovarian
[31] = test system: OVCAR-8 ovarian
[32] = test system: RPMI-8226 leukemia
[33] = test system: SF-268 CNS
[34] = test system: SF-295 CNS
[35] = test system: SF-539 CNS
[36] = test system: SK-MEL-2 melanoma
[37] = test system: SK-MEL-28 melanoma
[38] = test system: SK-MEL-5 melanoma
[39] = test system: SK-OV-3 ovarian
[40] = test system: SN12C renal
[41] = test system: SNB-19 CNS
[42] = test system: SNB-75 CNS
[43] = test system: SNB-78 CNS
[44] = test system: SW-620 colon
[45] = test system: TK-10 renal
[46] = test system: U251 CNS
[47] = test system: UACC-257 melanoma
[48] = test system: UACC-62 melanoma
[49] = test system: UO-31 renal
[50] = test system: XF 498 CNS
[51] = test system: HCT-116 colon
[52] = test system: HL-60(TB) leukemia
[53] = test system: HOP-92 NSCLC
[54] = test system: NCI-H226 lung
[55] = test system: NCI-H522 lung
[56] = test system: RXF 393 renal
[57] = test system: SR leukemia

CCc1cccc(C(C)CC)c1NC(=O)CC1C(=O)Nc2ccccc2S1(=O)=O (centres undefined)
TGI [1]: 33.6 µM
TGI [2]: 72.6 µM
TGI [3]: 70 µM
TGI [4]: > 100 µM
TGI [5]: 40.2 µM
TGI [6]: 30.5 µM
TGI [7]: 44.5 µM
TGI [8]: 33.2 µM
TGI [9]: 39.2 µM
TGI [10]: 71.3 µM
TGI [11]: 44.3 µM
TGI [12]: 22.1 µM
TGI [13]: 48.7 µM
TGI [14]: > 100 µM
TGI [15]: 47.9 µM
TGI [16]: > 100 µM
TGI [17]: 28.5 µM
TGI [18]: 40.5 µM
TGI [19]: > 100 µM
TGI [20]: 39.9 µM
TGI [21]: 24.5 µM
TGI [22]: > 100 µM
TGI [23]: > 100 µM
TGI [24]: > 100 µM
TGI [25]: 41.5 µM
TGI [26]: 40.1 µM
TGI [27]: > 100 µM
TGI [28]: 38.2 µM
TGI [29]: 39.9 µM
TGI [30]: > 100 µM
TGI [31]: 15.9 µM
TGI [32]: 43.3 µM
TGI [33]: > 100 µM
TGI [34]: > 100 µM
TGI [35]: 52.1 µM
TGI [36]: > 100 µM
TGI [37]: > 100 µM
TGI [38]: > 100 µM
TGI [39]: 99.2 µM
TGI [40]: > 100 µM
TGI [41]: > 100 µM
TGI [42]: 94.6 µM
TGI [43]: 65.5 µM
TGI [44]: 28.7 µM
TGI [45]: 84.5 µM
TGI [46]: > 100 µM
TGI [47]: > 100 µM
TGI [48]: > 100 µM
TGI [49]: 96.2 µM
TGI [50]: > 100 µM

Cc1cc2c(cc1O)[nH]c1cc3c(cc12)C=CC(C)(C)O3
GI50 [3]: 6.42 µM
TGI [3]: 21.6 µM
GI50 [4]: 9.3 µM
TGI [4]: > 25 µM
GI50 [6]: 19.8 µM
TGI [6]: > 25 µM
TGI [7]: > 25 µM
GI50 [8]: 12.7 µM
TGI [8]: > 25 µM
TGI [9]: > 25 µM
GI50 [10]: 5.04 µM
TGI [10]: 12.2 µM
GI50 [12]: 6.73 µM
TGI [12]: 14.5 µM
GI50 [51]: 12.8 µM
TGI [51]: > 25 µM
GI50 [13]: 8.73 µM
TGI [13]: > 25 µM
GI50 [52]: 6.98 µM
TGI [52]: > 25 µM
GI50 [14]: 7.95 µM
TGI [14]: 24.4 µM
GI50 [53]: 9.85 µM
TGI [53]: > 25 µM
GI50 [15]: 11.8 µM
TGI [15]: > 25 µM
GI50 [16]: 22.9 µM
TGI [16]: > 25 µM
TGI [17]: > 25 µM
GI50 [18]: 5.26 µM
TGI [18]: 11.9 µM
GI50 [19]: 9.35 µM
TGI [19]: > 25 µM
GI50 [20]: 3.95 µM
TGI [20]: 7.41 µM
GI50 [21]: 9.31 µM
TGI [21]: > 25 µM
GI50 [22]: 6.07 µM
TGI [22]: 16.9 µM
GI50 [23]: 19.6 µM
TGI [23]: > 25 µM
GI50 [24]: 10.1 µM
TGI [24]: > 25 µM
GI50 [25]: 0.00323 µM
TGI [25]: > 25 µM
GI50 [54]: 18.9 µM
TGI [54]: > 25 µM
GI50 [27]: 5.36 µM
TGI [27]: 12.4 µM
GI50 [55]: 8.39 µM
TGI [55]: > 25 µM
TGI [28]: 22.6 µM
TGI [29]: > 25 µM
TGI [30]: > 25 µM
TGI [31]: 9.41 µM
TGI [32]: > 25 µM
GI50 [56]: 4.93 µM
TGI [56]: 11.5 µM
GI50 [33]: 6.69 µM
TGI [33]: > 25 µM
GI50 [35]: 4.08 µM
TGI [35]: 9.96 µM
TGI [36]: > 25 µM
GI50 [37]: 14.5 µM
TGI [37]: > 25 µM
GI50 [38]: 17.5 µM
TGI [38]: > 25 µM
TGI [39]: > 25 µM
GI50 [40]: 6.32 µM
TGI [40]: 18.9 µM
TGI [41]: > 25 µM
TGI [43]: > 25 µM
GI50 [57]: 6.39 µM
TGI [57]: 24.9 µM
GI50 [44]: 7.64 µM
TGI [44]: > 25 µM
TGI [45]: > 25 µM
GI50 [46]: 6.06 µM
TGI [46]: 14.3 µM
GI50 [48]: 6.75 µM
TGI [48]: > 25 µM
GI50 [49]: 11.4 µM
TGI [49]: > 25 µM
TGI [50]: > 25 µM
